The source of these data is patent publication US20040198819A1, “Biological response modifier composition and uses thereof” (priority 2001, published 2004).

Experiment [1] concerns peritoneal macrophages. The experiment can be described thus: TNF-α release by mouse peritoneal macrophages (ELISA). The class given is cell-based, C57BL/6 mice. The settings on record: in vitro culture. On the procedure:
(§1) Peritoneal macrophages are harvested from C57BL/6 mice 72 hours after intraperitoneal injection of 1.5 ml of 4% protease peptone. The macrophages are then stimulated in vitro with medium alone, 50 ng LPS, or BRM. Measurements of the stimulation are performed with respect to TNF (by ELISA) and NO (by spectrophotometric assay using the Greiss reagent) levels in duplicate experiments.
In vitro synergy of BRM with IFN-γ for TNF-α release is studied using the same peritoneal mouse macrophages derived from C57BL/6 mice treated as above. […] The same macrophages stimulated with either LPS or IFN-γ release almost 3000 pg/ml of TNF-α.
In general terms: In an ELISA, binding on a coated surface is turned into a signal by an enzyme label.

For experiment [2], the system named is peritoneal macrophages. Kind of experiment: Nitric oxide release by mouse peritoneal macrophages (Greiss reagent). The note with it: in vitro. The class given is cell-based, C57BL/6 mice. The method, then: as §1
In vitro synergy of BRM with LPS for nitric oxide (NO) is addressed in the same procedure as above, except NO is determined in the supernatant of the treated macrophages. As above, the assay for NO is spectrophotometric and uses a Greiss reagent.
In vitro synergy of BRM with IFN-γ for NO release is studied, using the same peritoneal mouse macrophages derived from C57BL/6 mice treated as above.

Consider “IFN-γ: interferon gamma, conventional macrophage activator”, for which, in the experiment with peritoneal macrophages [1], the “release of TNF-α” value is about 3000 pg/mL. For the same substance, the “release of NO by macrophages, stimulus alone” value in the experiment on peritoneal macrophages [2] is on record as “enhanced NO production”.
